In patent publication US8846698B2, “Pyrrolo[2,3-d]pyrimidine tropomysin-related kinase inhibitors” (Pfizer Limited, priority 2011, dated 2014):
pIC50: −log10 of the molar value.

Molecular target: TRKA (Homo sapiens (Human), UniProt P04629)
Assay: Isolated TRK enzyme assay (HTRF KinEASE-TK), TRKA
Type: biochemical
Conditions: read-out: Trka enzyme (IC50)

Chain of TRKA (P04629 441-796): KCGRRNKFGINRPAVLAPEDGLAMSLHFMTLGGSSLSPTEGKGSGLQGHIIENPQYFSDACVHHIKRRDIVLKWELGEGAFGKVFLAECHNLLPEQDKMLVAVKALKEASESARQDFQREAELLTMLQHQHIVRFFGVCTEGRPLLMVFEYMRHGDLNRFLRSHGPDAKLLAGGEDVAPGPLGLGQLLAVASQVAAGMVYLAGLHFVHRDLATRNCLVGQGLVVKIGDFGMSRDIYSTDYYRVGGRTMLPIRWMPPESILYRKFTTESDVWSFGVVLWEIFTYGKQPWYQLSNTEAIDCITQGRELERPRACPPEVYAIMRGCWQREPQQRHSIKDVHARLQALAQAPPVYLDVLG

| Compound | pIC50 |
| --- | --- |
| Cc1coc2cnc(C(=O)Nc3cncc(C(=O)c4cn(C(C)C)c5ncncc45)c3)cc12 [Example 439, 3-Methyl-furo[2,3-c]pyridine-5-carboxylic acid [5-(7-isopropyl-7H-pyrrolo[2,3-d]pyrimidine-5-carbonyl)-pyridin-3-yl]-amide] | 7.65 |
| CC(CO)n1cc(C(=O)c2cncc(NC(=O)Cc3ccc(C#N)cc3)c2)c2cnc(N)nc21 (single isomer, unassigned) [Example 214, N-(5-{[2-amino-7-(2-hydroxy-1-methylethyl)-7H-pyrrolo[2,3-d]pyrimidin-5-yl]carbonyl}pyridin-3-yl)-2-(4-cyanophenyl)acetamide] | 7.18 |
| Cc1ccc(CC(=O)Nc2cncc(C(=O)c3cn(C)c4ncncc34)c2)c(C)c1 [Example 188, 2-(2,4-dimethylphenyl)-N-{5-[(7-methyl-7H-pyrrolo[2,3-d]pyrimidin-5-yl)carbonyl]pyridin-3-yl}acetamide] | 6.56 |
| CC(C)n1cc(C(=O)c2cncc(NC(=O)Cc3nnc(O)c4ccccc34)c2)c2cncnc21 [Example 361, 2-(4-Hydroxy-phthalazin-1-yl)-N-[5-(7-isopropyl-7H-pyrrolo[2,3-d]pyrimidine-5-carbonyl)-pyridin-3-yl]-acetamide] | 5.12 |
| CC(C)n1cc(C(=O)c2cncc(NC(=O)c3ccn4nccc4c3)c2)c2cncnc21 [Example 448, Pyrazolo[1,5-a]pyridine-5-carboxylic acid [5-(7-isopropyl-7H-pyrrolo[2,3-d]pyrimidine-5-carbonyl)-pyridin-3-yl]-amide] | 6.57 |
| CS(=O)(=O)Cn1cc(C(=O)c2cncc(NC(=O)Cc3ccc(Cl)cc3)c2)c2cncnc21 [Example 314, 2-(4-chlorophenyl)-N-[5-({7-[(methylsulfonyl)methyl]-7H-pyrrolo[2,3-d]pyrimidin-5-yl}carbonyl)pyridin-3-yl]acetamide] | 6.08 |
| COc1cc(CC(=O)Nc2cncc(C(=O)c3cn(C(C)C)c4ncncc34)c2)ccc1C#N [Example 77, 2-(4-cyano-3-methoxyphenyl)-N-{5-[(7-isopropyl-7H-pyrrolo[2,3-d]pyrimidin-5-yl)carbonyl]pyridin-3-yl}acetamide] | 7.19 |
| Cc1cn(CC(=O)Nc2cncc(C(=O)c3cn(C(C)C)c4ncncc34)c2)nn1 [Example 162, N-{5-[(7-isopropyl-7H-pyrrolo[2,3-d]pyrimidin-5-yl)carbonyl]pyridin-3-yl}-2-(4-methyl-1H-1,2,3-triazol-1-yl)acetamide] | 6.49 |
| CC(CO)(CO)n1cc(C(=O)c2cncc(NC(=O)Cc3ccc(Cl)cn3)c2)c2cncnc21 [Example 237, 2-(5-chloropyridin-2-yl)-N-[5-({7-[2-hydroxy-1-(hydroxymethyl)-1-methylethyl]-7H-pyrrolo[2,3-d]pyrimidin-5-yl}carbonyl)pyridin-3-yl]acetamide] | 7.13 |
| CC(C)n1cc(C(=O)c2cncc(NC(=O)Cn3ccnc3)c2)c2cncnc21 [Example 372, 2-Imidazol-1-yl-N-[5-(7-isopropyl-7H-pyrrolo[2,3-d]pyrimidine-5-carbonyl)-pyridin-3-yl]-acetamide] | 5.01 |
| Cn1cc(C(=O)c2cncc(NC(=O)C3Cc4ccccc4C3)c2)c2cncnc21 [Example 337, N-{5-[(7-methyl-7H-pyrrolo[2,3-d]pyrimidin-5-yl)carbonyl]pyridin-3-yl}indane-2-carboxamide] | 5.37 |
| Nc1ncc2c(C(=O)c3cncc(NC(=O)Cn4ccc(C(F)(F)F)n4)c3)cn(C34CC(C3)C4)c2n1 [Example 580, N-[5-(2-Amino-7-bicyclo[1.1.1]pent-1-yl-7H-pyrrolo[2,3-d]pyrimidine-5-carbonyl)-pyridin-3-yl]-2-(3-trifluoromethyl-pyrazol-1-yl)-acetamide] | 9.08 |
| CS(=O)(=O)c1cccc(CC(=O)Nc2cncc(C(=O)c3cn(C45CC(C4)C5)c4nc(N)ncc34)c2)c1 [Example 579, N-[5-(2-Amino-7-bicyclo[1.1.1]pent-1-yl-7H-pyrrolo[2,3-d]pyrimidine-5-carbonyl)-pyridin-3-yl]-2-(3-methanesulfonyl-phenyl)-acetamide] | 8.09 |
| CC(C)c1csc(C(=O)Nc2cncc(C(=O)c3cn(C(C)C)c4ncncc34)c2)n1 [Example 438, 4-Isopropyl-thiazole-2-carboxylic acid [5-(7-isopropyl-7H-pyrrolo[2,3-d]pyrimidine-5-carbonyl)-pyridin-3-yl]-amide] | 7.51 |
| CC(C)(C)n1cc(C(=O)c2cncc(NC(=O)Cc3ccc(C#N)cc3)c2)c2cnc(N)nc21 [Example 520, N-[5-(2-Amino-7-tert-butyl-7H-pyrrolo[2,3-d]pyrimidine-5-carbonyl)-pyridin-3-yl]-2-(4-cyano-phenyl)-acetamide] | 8.34 |
| CC(C)n1cc(C(=O)c2cncc(NC(=O)COc3ccccc3C#N)c2)c2cncnc21 [Example 347, 2-(2-cyanophenoxy)-N-(5-{[7-(propan-2-yl)-7H-pyrrolo[2,3-d]pyrimidin-5-yl]carbonyl}pyridin-3-yl)acetamide] | 6.81 |

| Compound | pIC50 |
| --- | --- |
| COc1ccc2[nH]c(C)c(CC(=O)Nc3cncc(C(=O)c4cn(C(C)C)c5ncncc45)c3)c2c1 [Example 156, N-{5-[(7-isopropyl-7H-pyrrolo[2,3-d]pyrimidin-5-yl)carbonyl]pyridin-3-yl}-2-(5-methoxy-2-methyl-1H-indol-3-yl)acetamide] | 6.88 |
| CC(C)n1cc(C(=O)c2cncc(NC(=O)c3cc4n(n3)CCC4)c2)c2cncnc21 [Example 458, 5,6-Dihydro-4H-pyrrolo[1,2-b]pyrazole-2-carboxylic acid [5-(7-isopropyl-7H-pyrrolo[2,3-d]pyrimidine-5-carbonyl)-pyridin-3-yl]-amide] | 6.67 |
| CC(C)n1cc(C(=O)c2cncc(NC(=O)c3nc(Cl)c(Cl)[nH]3)c2)c2cncnc21 [Example 482, 4,5-Dichloro-1H-imidazole-2-carboxylic acid [5-(7-isopropyl-7H-pyrrolo[2,3-d]pyrimidine-5-carbonyl)-pyridin-3-yl]-amide] | 5.16 |
| CC(C)n1cc(C(=O)c2cncc(NC(=O)c3cnc4cc[nH]c4c3)c2)c2cncnc21 [Example 505, 1H-Pyrrolo[3,2-b]pyridine-6-carboxylic acid [5-(7-isopropyl-7H-pyrrolo[2,3-d]pyrimidine-5-carbonyl)-pyridin-3-yl]-amide] | 5.79 |
| O=C(Cc1ccc(OC(F)(F)F)cc1)Nc1cncc(C(=O)c2cn(C(CO)CO)c3ncncc23)c1 [Example 280, N-[5-({7-[2-hydroxy-1-(hydroxymethyl)ethyl]-7H-pyrrolo[2,3-d]pyrimidin-5-yl}carbonyl)pyridin-3-yl]-2-[4-(trifluoromethoxy)phenyl]acetamide] | 6.30 |
| CC(C)n1cc(C(=O)c2cncc(N(C)C(=O)Cc3ccc(C#N)cc3)c2)c2cncnc21 [Example 298, 2-(4-cyanophenyl)-N-{5-[(7-isopropyl-7H-pyrrolo[2,3-d]pyrimidin-5-yl)carbonyl]pyridin-3-yl}-N-methylacetamide] | 5.84 |
| CC(CO)n1cc(C(=O)c2cncc(NC(=O)Cc3ccc4cccnc4c3)c2)c2cnc(N)nc21 (single isomer, unassigned) [Example 216, N-(5-{[2-amino-7-(2-hydroxy-1-methylethyl)-7H-pyrrolo[2,3-d]pyrimidin-5-yl]carbonyl}pyridin-3-yl)-2-quinolin-7-ylacetamide] | 7.50 |
| COCC(C)(C)n1cc(C(=O)c2cncc(NC(=O)Cc3ccc(F)cn3)c2)c2cnc(N)nc21 [Example 548, N-{5-[2-Amino-7-(2-methoxy-1,1-dimethyl-ethyl)-7H-pyrrolo[2,3-d]pyrimidine-5-carbonyl]-pyridin-3-yl}-2-(5-fluoro-pyridin-2-yl)-acetamide] | 7.67 |
| CC(CO)(CO)n1cc(C(=O)c2cncc(NC(=O)Cc3ccc(Cl)cc3)c2)c2cncnc21 [Example 235, 2-(4-chlorophenyl)-N-[5-({7-[2-hydroxy-1-(hydroxymethyl)-1-methylethyl]-7H-pyrrolo[2,3-d]pyrimidin-5-yl}carbonyl)pyridin-3-yl]acetamide] | 7.15 |
| CC(C)(CO)n1cc(C(=O)c2cncc(NC(=O)Cc3ccc(C(F)(F)F)cn3)c2)c2cnc(N)nc21 [Example 562, N-{5-[2-Amino-7-(2-hydroxy-1,1-dimethyl-ethyl)-7H-pyrrolo[2,3-d]pyrimidine-5-carbonyl]-pyridin-3-yl}-2-(5-trifluoromethyl-pyridin-2-yl)-acetamide] | 8.43 |
| CC(C)n1cc(C(=O)c2cncc(NC(=O)Cc3ccc4[nH]cnc4c3)c2)c2cncnc21 [Example 80, 2-(1H-benzimidazol-5-yl)-N-{5-[(7-isopropyl-7H-pyrrolo[2,3-d]pyrimidin-5-yl)carbonyl]pyridin-3-yl}acetamide] | 6.41 |
| CC(C)n1cc(C(=O)c2cncc(NC(=O)Cc3cccc(C(=O)c4ccccc4)c3)c2)c2cncnc21 [Example 288, 2-(3-benzoylphenyl)-N-(5-(7-isopropyl-7H-pyrrolo[2,3-d]pyrimidine-5-carbonyl)pyridin-3-yl)acetamide] | 7.37 |
| CC(C)n1cc(C(=O)c2cncc(NC(=O)c3ccn4ncnc4c3)c2)c2cncnc21 [Example 427, [1,2,4]Triazolo[1,5-a]pyridine-7-carboxylic acid [5-(7-isopropyl-7H-pyrrolo[2,3-d]pyrimidine-5-carbonyl)-pyridin-3-yl]amide] | 7.03 |
| Cc1n[nH]c(C(F)(F)F)c1C(=O)Nc1cncc(C(=O)c2cn(C(C)C)c3ncncc23)c1 [Example 387, 3-Methyl-5-trifluoromethyl-1H-pyrazole-4-carboxylic acid [5-(7-isopropyl-7H-pyrrolo[2,3-d]pyrimidine-5-carbonyl)-pyridin-3-yl]-amide] | 5.16 |
| CC(C)n1cc(C(=O)c2cncc(NC(=O)Cc3ccc4nnnn4n3)c2)c2cncnc21 [Example 157, N-{5-[(7-isopropyl-7H-pyrrolo[2,3-d]pyrimidin-5-yl)carbonyl]pyridin-3-yl}-2-tetrazolo[1,5-b]pyridazin-6-ylacetamide] | 6.76 |
| CC(C)n1ncc(CC(=O)Nc2cncc(C(=O)c3cn(C(C)C)c4nc(N)ncc34)c2)c1C(F)(F)F [Example 251, N-{5-[(2-amino-7-isopropyl-7H-pyrrolo[2,3-d]pyrimidin-5-yl)carbonyl]pyridin-3-yl}-2-[1-isopropyl-5-(trifluoromethyl)-1H-pyrazol-4-yl]acetamide] | 7.48 |
